In patent publication US11744802B2, “Therapeutic compositions for treatment of human immunodeficiency virus” (Gilead Sciences, Inc., priority 2015, dated 2023):
Read-outs that look alike come from different tables or passages of the source. Each block holds one compound with its values, some of them ahead of it.

Assays:
[1] = Relative bioavailability and food-effect crossover study, cohort 1 (bilayer tablet F2 vs F1 co-administered with F3); conditions: for AUC(0-inf): AUCinf; for AUC(0-t): AUClast
Method: Studies were carried out to assess the pharmacokinetic profiles of the formulations F1, F2, and F3 of Examples 1, 2, and 2A. A randomized, open-label, multiple-period, fixed-sequence, crossover study was performed to evaluate the relative bioavailability of bilayer tablet formulation F2 compared with that of single agent tablet formulation F1 co-administered simultaneously with a fixed-dose combination tablet containing emtricitabine and tenofovir alafenamide (tablet formulation F3). The bioavailability was evaluated in healthy subjects.
The following plasma pharmacokinetic parameters were calculated: Cmax, AUClast, and AUCinf.
Pharmacokinetics: Plasma concentrations and PK parameters were listed and summarized by analyte and treatment group using descriptive statistics. In addition, a parametric analysis of variance using a mixed-effects model appropriate for a crossover design was fitted to the natural logarithmic transformation of the PK parameters (AUCinf, AUClast, and Cmax).

[2] = Food effect on single dose Compound of Formula I 100 mg single agent tablet (8 subjects); assay type: in vivo, human; conditions: for AUC(0-inf) / AUC(0-t) / Cmax: human, plasma, oral, 100 mg, mean, Compound of Formula I 100 mg single agent tablet, n = 8
Method: In this study, a single dose of the compound of Formula I was administered in two periods with fixed sequence under fasted and fed conditions respectively. A washout of at least five half-lives was required between fasted and fed sequences.
Subjects continued to fast until 4 hours post dose or until collection of the 4-hour postdose blood sample.
The 90% CI for the geometric least square mean (GLSM) ratios for fast versus fed was constructed. The statistical comparison of the pharmacokinetic parameters of the compound of Formula 1 following single dose administration of this tablet formulation in fed and fasted states is presented in the table below.

[3] = Pharmacokinetic study cohort 2 (bilayer tablet F7 vs F1 + F3; food effect on F7); conditions: for AUCinf, Mean (% CV) / Cmax, Mean (% CV) / AUClast, Mean (% CV): plasma;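 on all read-outs here: plasma PK parameters per analyte summarized descriptively, with GLSM ratios derived from mixed-effects ANOVA on ln-transformed values (treatment as fixed effect, subject as random effect)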
Method: (§1) The pharmacokinetic study of Example 3 was continued with a second treatment group (cohort) to assess the pharmacokinetic profile of formulation F7 of Example 7 compared with that of formulation F2.
(§2) The following plasma pharmacokinetic parameters were calculated: AUClast, AUCinf, % AUCexp, Cmax, Clast, Tmax, Tlast, CL/F, Vz/F, and t1/2.
(§3) Pharmacokinetics: Individual subject concentration data and individual subject PK parameters for each analyte (compound of Formula 1, FTC, and TAF) were listed and summarized using descriptive statistics by treatment group (cohort) and treatment. Summary statistics were determined for both individual subject concentration data by time point, cohort, and treatment and individual subject PK parameters by cohort and treatment. Also, the geometric mean, 95% confidence interval (CI), and the mean, and standard deviation (SD) of the natural log-transformed values were presented for individual subject PK parameter data. The sample size for each time point was based on the number of subjects with nonmissing concentration data at that time point. The number of subjects with concentration below the level of quantitation (BLQ) was presented for each time point.
(§4) Statistical comparisons of the natural log-transformed PK parameters for each analyte and treatment comparison of interest were performed. The statistical modelling was based on the PK Analysis set for the analyte under evaluation. For each analyte, all subjects with available data for the PK parameter under evaluation were included in the modelling. The statistical comparisons using Treatment A as a reference only used data from this cohort, not from the earlier cohort of Example 3 (i.e., Treatment A was not pooled).
(§5) For each analyte and each PK parameter, a parametric (normal theory) mixed-effects ANOVA model was fitted to the natural log-transformed values of the PK parameter under evaluation. The statistical model included treatment as a fixed effect and subject as a random effect.

[4] = Physicochemical properties of the active ingredients (pKa, pH-dependent solubility and stability, BCS class); conditions: for pH of maximum solubility: pH-dependent solubility
[5] = in vivo
Method: as §1, §2, §3, §4, §5

[6] = human, plasma, oral, mean, F2 Compound of Formula I/F/TAF (75/200/25 mg), high-fat meal, Test, N = 28
[7] = human, plasma, oral, plasma, mean, F1 Compound of Formula I (75 mg) + F3 F/TAF (200/25 mg) co-administered, fasted, Reference, N = 28, cohort 1
[8] = 100 mg single dose, high-calorie/high-fat breakfast
[9] = F7 (50/200/25 mg), high fat meal, N = 27
[10] = F7 (50/200/25 mg), moderate fat meal, N = 27
[11] = Formulation F1 + F3 (75 mg + F/TAF 200/25 mg), fasted, Reference, N = 28, cohort 2
[12] = F2 (75/200/25 mg) high-fat meal / fasted
[13] = Test F2 (75/200/25 mg) / Reference F1 + F3, fasted
[14] = human, in vivo, plasma, mean, F1 Compound of Formula I (75 mg) + F3 F/TAF (200/25 mg) co-administered, fasted, Reference, N = 28, cohort 1
[15] = human, in vivo, plasma, mean, F2 Compound of Formula I/F/TAF (75/200/25 mg), high-fat meal, Test, N = 28
[16] = human, in vivo, plasma, mean, bilayer tablet F2 Compound of Formula I/F/TAF (75/200/25 mg), single dose, fasted, N = 28
[17] = Test F7 (50/200/25 mg) / Reference F1 + F3, fasted

Compound: O=C(NCc1c(F)cc(F)cc1F)c1cn2c(c(O)c1=O)C(=O)N1[C@H]3CC[C@H](C3)O[C@@H]1C2 [Compound of Formula I, (2R,5S,13aR)-8-hydroxy-7,9-dioxo-N-(2,4,6-trifluorobenzyl)-2,3,4,5,7,9,13,13a-octahydro-2,5-methanopyrido[1′,2′:4,5]pyrazino[2,1-b][1,3]oxazepine-10-carboxamide]
- AUCinf higher after F2 than after F1 with F3 ([1]; fasted): 27%
- Cmax higher after F2 than after F1 with F3 ([1]; fasted): 31%
- total exposure higher in F2 than in F1 co-dosed with F3 ([1]; fasted): approximately 30%
- AUC(0-inf) [1, 6]: 226 µg·h/mL
- AUC(0-inf) [1, 7]: 123 µg·h/mL
- AUC(0-t) [1, 6]: 217 µg·h/mL
- AUC(0-t) ([1]; human, plasma, oral, mean, bilayer tablet F2 Compound of Formula I/F/TAF (75/200/25 mg), single dose, fasted, N = 28): 152 µg·h/mL
- AUC(0-t) [1, 7]: 120 µg·h/mL
- Cmax [1, 7]: 5590 ng/mL
- AUCinf ([1]; plasma, mean, bilayer tablet F2 Compound of Formula I/F/TAF (75/200/25 mg), single dose, fasted, N = 28): 156,637.5 h · ng/mL
- AUCinf higher with high-fat meal than fasted ([1]; tablet formulation F2): 46%
- Cmax higher with high-fat meal than fasted ([1]; tablet formulation F2): 27%
- changes in clearance and t1/2 following administration with food ([2]; 100 mg single dose): no apparent changes
- increase of GLSM value of AUCinf with food [2, 8]: 84%
- increase of GLSM value of Cmax with food [2, 8]: 101%
- AUC(0-inf) ([2]; Fasted): 118 µg·h/mL
- AUC(0-t) ([2]; Fasted): 116 µg·h/mL
- Cmax ([2]; Fasted): 5880 ng/mL
- AUC(0-inf) ([2]; Fed (high-fat breakfast)): 214 µg·h/mL
- AUC(0-t) ([2]; Fed (high-fat breakfast)): 209 µg·h/mL
- Cmax ([2]; Fed (high-fat breakfast)): 11300 ng/mL
- exposure in Formulation F7 compared with Formulation F2 ([3]; 50 mg vs 75 mg dose): proportionally lower
- AUCinf, Mean (% CV) [3, 9]: 140,032.4 (21.8) hr · ng/mL
- Cmax, Mean (% CV) [3, 9]: 5936.3 (18.3) ng/mL
- AUCinf, Mean (% CV) [3, 10]: 140,197.7 (23.6) hr · ng/mL
- Cmax, Mean (% CV) [3, 10]: 6279.6 (18.3) ng/mL
- AUCinf, Mean (% CV) [3, 11]: 146,931.6 (31.1) hr · ng/mL
- Cmax, Mean (% CV) [3, 11]: 6791.1 (26.4) ng/mL
- AUCinf higher with high-fat meal than fasted ([3]; tablet formulation F7): 24%
- AUCinf higher with moderate fat meal than fasted ([3]; tablet formulation F7): 24%
- Cmax higher with high-fat meal than fasted ([3]; tablet formulation F7): 13%
- Cmax higher with moderate fat meal than fasted ([3]; tablet formulation F7): 20%
- BCS class [4]: BCS Class 2
- pH of maximum chemical stability [4]: 4
- pKa [4]: 8.6
- solubility (BCS classification) [4]: low solubility
- pH of maximum solubility [4]: 10.5

- geometric mean ratio of AUCinf (food effect) ([1]; human, in vivo): 1.00
- geometric mean ratio of Cmax (food effect) ([1]; human, in vivo): 0.83
- exposure following F2 compared with F1 with the F/TAF FDC (F3) ([1]; in vivo): similar
- exposure of Formulation F7 compared with coadministered reference tablets [5]: similar
- BCS class [4]: BCS Class 1
- pKa [4]: 2.65
- solubility (BCS classification) [4]: high solubility
Compound: Nc1nc(=O)n([C@@H]2CS[C@H](CO)O2)cc1F [Emtricitabine, 4-amino-5-fluoro-1-[(2R,5S)-2-(hydroxymethyl)-1,3-oxathiolan-5-yl]-1,2-dihydropyrimidin-2-one]

Compound: CC(C)OC(=O)[C@H](C)N[P@](=O)(CO[C@H](C)Cn1cnc2c(N)ncnc21)Oc1ccccc1 [Tenofovir alafenamide]
- % GLSM Ratio of AUCinf [1, 12]: 158.20%
- % GLSM Ratio of AUClast [1, 12]: 156.81%
- % GLSM Ratio of Cmax [1, 12]: 83.22%
- % GLSM Ratio of AUCinf [1, 13]: 91.56%
- % GLSM Ratio of AUClast [1, 13]: 91.62%
- % GLSM Ratio of Cmax [1, 13]: 95.47%
- geometric mean ratio of AUCinf (food effect) ([1]; bilayer tablet formulation F2): 1.58
- geometric mean ratio of Cmax (food effect) ([1]; bilayer tablet formulation F2): 0.83
- exposure following F2 compared with F1 with the F/TAF FDC (F3) ([1]; fasted): similar
- AUC(0-inf) [1, 14]: 0.225 µg·h/mL
- AUC(0-inf) [1, 15]: 0.32 µg·h/mL
- AUC(0-inf) [1, 16]: 0.207 µg·h/mL
- AUC(0-t) [1, 14]: 0.224 µg·h/mL
- AUC(0-t) [1, 15]: 0.315 µg·h/mL
- AUC(0-t) [1, 16]: 0.206 µg·h/mL
- Cmax [1, 14]: 277 ng/mL
- Cmax [1, 15]: 212 ng/mL
- Cmax [1, 16]: 253 ng/mL
- geometric mean ratio of Cmax (food effect) ([1]; tablet formulation F1 (codosed with F3)): 0.85
- geometric mean ratio of AUCinf (food effect) ([1]; tablet formulation F1 codosed with tablet formulation F3): 1.75
- % GLSM Ratio (90% CI) of AUCinf ([3]; F7 high fat meal / fasted): 166.55 (146.54, 189.29) %
- % GLSM Ratio (90% CI) of AUClast ([3]; F7 high fat meal / fasted): 162.62 (143.10, 184.80) %
- % GLSM Ratio (90% CI) of Cmax ([3]; F7 high fat meal / fasted): 91.71 (73.46, 114.49) %
- % GLSM Ratio (90% CI) of AUCinf ([3]; F7 moderate fat meal / fasted): 148.23 (130.42, 168.47) %
- % GLSM Ratio (90% CI) of AUClast ([3]; F7 moderate fat meal / fasted): 148.20 (130.41, 168.41) %
- % GLSM Ratio (90% CI) of Cmax ([3]; F7 moderate fat meal / fasted): 99.04 (79.33, 123.65) %
- % GLSM Ratio (90% CI) of AUCinf [3, 17]: 85.48 (75.33, 97.00) %
- % GLSM Ratio (90% CI) of AUClast [3, 17]: 85.37 (75.24, 96.85) %
- % GLSM Ratio (90% CI) of Cmax [3, 17]: 84.17 (67.59, 104.81) %
- Cmax lower for Formulation F7 than for the coadministered reference tablets ([3]; fasted): approximately 16%
- exposure of Formulation F7 compared with coadministered reference tablets ([3]; fasted): similar
- AUCinf, Mean (% CV) [3, 9]: 318.4 (32.8) hr · ng/mL
- AUClast, Mean (% CV) [3, 9]: 310.3 (34.9) hr · ng/mL
- Cmax, Mean (% CV) [3, 9]: 236.6 (65.1) ng/mL
- AUCinf, Mean (% CV) [3, 10]: 293.1 (40.9) hr · ng/mL
- AUClast, Mean (% CV) [3, 10]: 290.6 (41.3) hr · ng/mL
- Cmax, Mean (% CV) [3, 10]: 251.1 (66.7) ng/mL
- AUCinf, Mean (% CV) [3, 11]: 238.3 (45.0) hr · ng/mL
- AUClast, Mean (% CV) [3, 11]: 236.7 (45.3) hr · ng/mL
- Cmax, Mean (% CV) [3, 11]: 291.9 (55.4) ng/mL
- BCS class [4]: BCS Class 3
- pKa [4]: 3.9
- solubility (BCS classification) [4]: high equilibrium solubility
- permeability (BCS classification) ([4]; not told): lower apparent permeability
- pH of maximum solubility [4]: ~3
